As a reminder, the AC50 is the midpoint of the concentration-response curve, whichever way the signal moves.

Results filed as inconclusive are left out. Activity calls are given as the source filed them.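 Rule for the calls: active = every test run gives a fitted half-maximal dose no higher than ten times the top tested dose, with signal falling; inconclusive = runs disagree, or a flat mid-level drop or poor fit; inactive = every test run inactive.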

The target in one assay is Autoinducer 2-binding periplasmic protein LuxP (Vibrio harveyi) + Autoinducer 2 sensor kinase/phosphatase LuxQ (Vibrio harveyi) (UniProt P54300+P54302). Nature of the assay: inhibitors of AI-2-induced luminescence in V. harveyi MM32, dose response, mechanism study for V. harveyi quorum sensing inhibitors, strain MM32 LuxS-null, dry powder, set 3 (AID 493117). As to conditions: AI-2 luminescence, 5 h.
Autoinducer 2-binding periplasmic protein LuxP (Vibrio harveyi) + Autoinducer 2 sensor kinase/phosphatase LuxQ (Vibrio harveyi), sequence (P54300 whole entry, looked up): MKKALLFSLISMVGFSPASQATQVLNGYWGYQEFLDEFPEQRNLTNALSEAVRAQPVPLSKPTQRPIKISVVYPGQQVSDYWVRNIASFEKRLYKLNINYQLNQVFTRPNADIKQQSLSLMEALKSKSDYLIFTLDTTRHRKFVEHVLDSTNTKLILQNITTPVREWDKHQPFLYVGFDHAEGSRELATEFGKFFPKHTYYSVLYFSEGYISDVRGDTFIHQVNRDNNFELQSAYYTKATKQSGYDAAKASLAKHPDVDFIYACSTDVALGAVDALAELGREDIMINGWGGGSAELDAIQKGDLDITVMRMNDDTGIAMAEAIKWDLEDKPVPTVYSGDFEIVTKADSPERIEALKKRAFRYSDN
Autoinducer 2-binding periplasmic protein LuxP (Vibrio harveyi) + Autoinducer 2 sensor kinase/phosphatase LuxQ (Vibrio harveyi), sequence (P54302 whole entry, looked up): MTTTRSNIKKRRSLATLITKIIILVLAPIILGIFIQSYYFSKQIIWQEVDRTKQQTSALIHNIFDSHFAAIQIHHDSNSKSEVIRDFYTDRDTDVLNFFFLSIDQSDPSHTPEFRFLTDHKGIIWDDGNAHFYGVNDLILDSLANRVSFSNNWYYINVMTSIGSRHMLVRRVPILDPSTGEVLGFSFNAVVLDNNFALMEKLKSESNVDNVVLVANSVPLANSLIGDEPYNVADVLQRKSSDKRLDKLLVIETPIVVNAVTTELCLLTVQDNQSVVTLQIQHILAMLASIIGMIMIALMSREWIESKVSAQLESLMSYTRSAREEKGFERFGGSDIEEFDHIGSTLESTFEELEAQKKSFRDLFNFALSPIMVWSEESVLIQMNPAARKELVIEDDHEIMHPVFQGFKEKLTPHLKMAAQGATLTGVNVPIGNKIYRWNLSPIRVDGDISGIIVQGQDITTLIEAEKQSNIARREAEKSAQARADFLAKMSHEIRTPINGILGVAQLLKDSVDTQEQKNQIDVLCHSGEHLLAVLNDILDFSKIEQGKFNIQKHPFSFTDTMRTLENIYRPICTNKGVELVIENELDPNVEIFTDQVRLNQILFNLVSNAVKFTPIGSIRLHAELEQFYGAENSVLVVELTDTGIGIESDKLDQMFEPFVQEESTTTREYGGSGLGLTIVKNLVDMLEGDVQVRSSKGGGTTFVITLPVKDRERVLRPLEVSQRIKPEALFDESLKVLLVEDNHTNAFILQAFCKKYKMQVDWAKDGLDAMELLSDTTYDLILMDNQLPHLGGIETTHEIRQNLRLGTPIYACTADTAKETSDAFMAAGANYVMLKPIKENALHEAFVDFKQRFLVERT
Regarding `O=C1C=C/C(=C/Br)O1`, the AC50 was 3.45 µM.

In the case of `Cc1noc(C)c1S(=O)(=O)Nc1ccc2c(c1)C(=O)N([C@@H](C)CO)C[C@@H](C)[C@@H](CN(C)Cc1ccc(Oc3ccccc3)cc1)O2`, the AC50 was 18.4 µM.

Take `CCc1ccc(-c2ccc(C(=O)O)n2C)cc1`: the AC50 is 3.61 µM.

As to `O=S(=O)(Nc1ccccn1)c1ccc(Oc2ccccc2)cc1`, the AC50 was 1.35 µM.

Consider `C=Cn1c(C(=O)O)ccc1-c1ccc(OC)cc1`, for which the AC50 was 7.08 µM.

For `C[C@@H]1CN([C@H](C)CO)C(=O)c2ccccc2-c2ccccc2CO[C@@H]1CN(C)Cc1ccc(Oc2ccccc2)cc1`, the AC50 is 11.3 µM.

For `Cn1cnc(S(=O)(=O)Nc2ccc(OC(F)(F)F)cc2)c1`, the AC50 was 2.42 µM.

On to `C=Cn1c(C(=O)O)ccc1-c1ccc(CC)cc1`, for which the AC50 is 2.32 µM.

Consider `C=Cn1c(C(=O)O)ccc1-c1ccc(Cl)cc1`, for which the AC50 is 4.46 µM.

With `O=S(=O)(Nc1cccnc1)c1ccc(Oc2ccccc2)cc1`, the AC50 was 0.591 µM.

Still in this assay, the particulars now being: AI-2 luminescence, 5 h, at 16 µM (top of the series).
For the compound `Cn1cnc(S(=O)(=O)Nc2ccccc2F)c1`, the “activity change, negative = inhibition” value was “inactive”.

Consider `CC(=O)Nc1ccccc1NS(=O)(=O)c1cn(C)cn1`, for which the “activity change, negative = inhibition” value was “inactive”.

As to `Cc1ccccc1NS(=O)(=O)c1cn(C)cn1`, the “activity change, negative = inhibition” value was “inactive”.

Consider `CN(C)C(=O)c1ccccc1NS(=O)(=O)c1cn(C)cn1`, for which the “activity change, negative = inhibition” value is “inactive”.

`O=S(=O)(Nc1ccccn1)c1ccccc1`: the “activity change, negative = inhibition” value was “inactive”.

As for `C[C@H](CO)N1C[C@H](C)[C@H](CN(C)Cc2ccc(C(=O)O)cc2)Oc2ncc(-c3ccc(C(=O)N(C)C)cc3)cc2C1=O`, the “activity change, negative = inhibition” value is “inactive”.

On to `CCc1ccc(-c2ccc(C(=O)O)n2CC)cc1`, for which the “activity change, negative = inhibition” value was “inactive”.

Take `C=Cn1c(C(=O)O)ccc1-c1cccs1`: the “activity change, negative = inhibition” value is “inactive”.

For `COc1ccccc1NS(=O)(=O)c1cn(C)cn1`, the “activity change, negative = inhibition” value is “inactive”.

For the compound `Cn1cnc(S(=O)(=O)Nc2ccccc2Cl)c1`, the “activity change, negative = inhibition” value is “inactive”.

The record behind these values is PubChem BioAssay AID493117 (Broad Institute, 2011).
